{
  "source": "the NIST ThermoML archive (doi:10.1016/j.jct.2015.10.011)",
  "conditions": "298.15 K; 101.33 kPa; Liquid; Vibrating tube method",
  "note": "Numbers after ± are expanded uncertainties.",
  "data": [
    {"smiles": "CCCCCC", "note": "[hexane]", "values": [
      {"measurement": "mass density", "result": "655.19 ± 0.83", "unit": "kg/m3"}
    ]}
  ]
}
